From ChEMBL document CHEMBL4041483, “Aldgamycins J-O, 16-Membered Macrolides with a Branched Octose Unit from Streptomycetes sp. and Their Antibacterial Activities” (2016)
Values after ≈ are worked out from the molar mass of the structure shown.

Columns and labels:
Format in all cases: functional
Staphylococcus aureus = test: Antibacterial activity against Staphylococcus aureus 209P incubated at room temperature for 30 mins followed by incubation at 37 degC for 12 hrs by two-fold dilution method
Escherichia coli = test: Antibacterial activity against Escherichia coli ATCC 0111 incubated at room temperature for 30 mins followed by incubation at 37 degC for 12 hrs by two-fold dilution method
Candida albicans = test: Antifungal activity against Candida albicans FIM709 incubated at room temperature for 30 mins followed by incubation at 32 degC for 12 hrs by two-fold dilution method
Aspergillus niger = test: Antifungal activity against Aspergillus niger R330 incubated at room temperature for 30 mins followed by incubation at 32 degC for 12 hrs by two-fold dilution method

SMILES	MIC (Staphylococcus aureus) [µg/mL]	MIC (Escherichia coli) [µg/mL]	MIC (Candida albicans) [µg/mL]	MIC (Aspergillus niger) [µg/mL]
CO[C@@H]1[C@H](O)[C@@H](C)O[C@@H](OC[C@H]2[C@@H]3O[C@H]3CCC(=O)[C@@](C)(O)C[C@H](C)[C@H](O[C@@H]3O[C@H](C)C[C@](O)([C@H](C)O)[C@H]3O)[C@@H](C)/C=C/C(=O)O[C@@H]2C)[C@@H]1OC	500 (≈ 682 µM)	> 1000	> 1000	> 1000
CO[C@@H]1[C@H](O)[C@@H](C)O[C@@H](OC[C@H]2/C=C/C=C/C(=O)[C@H](C)C[C@H](C)[C@H](O[C@@H]3O[C@H](C)C[C@](O)([C@H](C)O)[C@H]3O)[C@@H](C)/C=C/C(=O)O[C@@H]2C)[C@@H]1OC	125 (≈ 179 µM)	> 1000	> 1000	> 1000
CO[C@@H]1[C@H](O)[C@@H](C)O[C@@H](OC[C@H]2/C=C/CCC(=O)[C@@](C)(O)C[C@H](C)[C@H](O[C@@H]3O[C@H](C)C[C@](O)([C@H](C)O)[C@H]3O)[C@@H](C)/C=C/C(=O)O[C@@H]2C)[C@@H]1OC	32 (≈ 44.6 µM)	> 500	> 500	> 500
CO[C@@H]1[C@H](O)[C@@H](C)O[C@@H](OC[C@H]2[C@@H]3O[C@H]3CCC(=O)[C@H](C)C[C@H](C)[C@H](O[C@@H]3O[C@H](C)C[C@](O)([C@H](C)O)[C@H]3O)[C@@H](C)/C=C/C(=O)O[C@@H]2C)[C@@H]1OC	> 1000	> 1000	> 1000	> 1000
CO[C@@H]1[C@H](O)[C@@H](C)O[C@@H](OC[C@H]2/C=C/CCC(=O)[C@H](C)C[C@H](C)[C@H](O[C@@H]3O[C@H](C)C[C@](O)([C@H](C)O)[C@H]3O)[C@@H](C)/C=C/C(=O)O[C@@H]2C)[C@@H]1OC	500 (≈ 713 µM)	> 500	> 500	> 500
C[C@@H]1C[C@@H]([C@H](O)CC2CC(=O)NC(=O)C2)C(=O)[C@@H](C)C1 [CYCLOHEXIMIDE]	–	–	64 (≈ 227 µM)	32 (≈ 114 µM)
NC[C@H]1O[C@H](O[C@H]2[C@H](O)[C@@H](O[C@H]3O[C@H](CO)[C@@H](O)[C@H](N)[C@H]3O)[C@H](N)C[C@@H]2N)[C@H](N)C[C@@H]1O [TOBRAMYCIN]	0.2 (≈ 0.428 µM)	2 (≈ 4.28 µM)	–	–

Now from value to molecule:

MIC (Staphylococcus aureus) [µg/mL]	MIC (Escherichia coli) [µg/mL]	MIC (Candida albicans) [µg/mL]	MIC (Aspergillus niger) [µg/mL]	SMILES
32 (≈ 44 µM)	> 500	> 500	> 500	CO[C@@H]1[C@H](O)[C@@H](C)O[C@@H](OC[C@H]2/C=C/CCC(=O)[C@H](C)C[C@H](C)[C@H](O[C@@H]3O[C@H](C)C[C@@]4(OC(=O)O[C@H]4C)[C@H]3O)[C@@H](C)/C=C/C(=O)O[C@@H]2C)[C@@H]1OC
4 (≈ 5.71 µM)	> 500	> 500	> 500	CO[C@@H]1[C@H](O)[C@@H](C)O[C@@H](OC[C@H]2[C@@H]3O[C@H]3/C=C/C(=O)[C@@](C)(O)C[C@H](C)[C@H](O[C@@H]3O[C@H](C)C[C@H](OC)[C@H]3O)[C@@H](C)/C=C/C(=O)O[C@@H]2C)[C@@H]1OC
16 (≈ 22.4 µM)	> 500	> 500	> 500	CO[C@@H]1[C@H](O)[C@@H](C)O[C@@H](OC[C@H]2/C=C/C=C/C(=O)[C@@](C)(O)C[C@H](C)[C@H](O[C@@H]3O[C@H](C)C[C@](O)([C@H](C)O)[C@H]3O)[C@@H](C)/C=C/C(=O)O[C@@H]2C)[C@@H]1OC
